Measured values published in US20140066842A1, “MICRONEEDLE DEVICES AND METHODS” (3M INNOVATIVE PROPERTIES COMPANY, priority 2011, published 2014).

What was measured:
[1] = Discoloration of tissue in which local anesthetic/dose-extending component are administered; type: in vivo; conditions: dose-extending component administered with local anesthetic by the microneedle devices
[2] = In vivo delivery of lidocaine to swine skin tissue from coated microneedle array (biopsy, LC/MS/MS); conditions: dose-extending component delivered with lidocaine and/or prilocaine by microneedles
Experimental: The in vivo delivery of lidocaine to tissue using the coated microneedle array described above was determined using naïve young adult female mixed breed agricultural swine (Yorkshire X from Midwest Research Swine, Gibbon, Minn.). Swine with minimal skin pigmentation and weighing 10-40 kg were selected for the study. The animals were initially sedated with ketamine (10 mg/kg) and glycopyrrolate (0.011 mg/kg) was intramuscularly administered to reduce salivary, tracheobronchial, and pharyngeal secretions. Hair and dirt on pig skin at the intended application sites were removed prior to application of the microneedle array to minimize complications Skin test sites were selected based on lack of skin pigmentation and skin damage. The hair was first clipped using an electric shaver followed by shaving with a wet multi-blade disposable razor (Schick Xtreme3) and shaving cream (Gillette Foamy Regular) while the animal was under anesthesia.
A light surgical plane of anesthesia was achieved by administering 1.5-5% isoflurane in 1.5-4 L of oxygen by mask. Anesthetized animals were placed in lateral recumbency on insulated table pads. During the experiment, the animals were placed on a heated table to control body temperature at approximately 38° C. Animals were observed continuously until normal recovery was attained. […] The biopsy punch samples were stored at −20° C. until analyzed. […]
Protein precipitation was used to prepare the digested tissue samples for analysis by LC/MS/MS. […] The resulting sample was quantitatively analyzed using a Sciex API3000 triple quadrupole mass spectrometer (Applied Biosystems, Foster City, Calif.) running in positive ion mode using Turbo IonSpray interface to monitor the product ions resulting from the m/z transitions: 235→86.2 for lidocaine and 247→97.5 for mepivacaine. The linear range for lidocaine was 50.0 to 20,000 ng/mL evaluated using 1/x^2 curve weighting. […]

Row | Compound | Discoloration of the tissue [1] | Extension of the local anesthetic dose (tissue levels compared with local anesthetic without the alpha adrenergic agonist) [2]
1 | Nc1cc(Cl)c(N=C2NCCN2)c(Cl)c1 [apraclonidine] | without any appreciable tissue discoloration | extend the local anesthetic dose
2 | Clc1cccc(Cl)c1N=C1NCCN1 [clonidine] | without any appreciable tissue discoloration | extend the local anesthetic dose
3 | CNC[C@H](O)c1ccc(O)c(O)c1 [epinephrine] | cause discoloration of the tissue, resulting in a blue or bruised appearance | 
4 | N=C(N)NC(=O)Cc1c(Cl)cccc1Cl [guanfacine] | without any appreciable tissue discoloration | extend the local anesthetic dose
